Reference: patent US20150218212A1, “FLUORINATED EPOXYKETONE-BASED TETRAPEPTIDE COMPOUNDS AND USES THEREOF AS PROTEASOME INHIBITORS” (FLUORINOV PHARMA INC., priority 2012, published 2015)

Legend:
Format in all cases: cell-based, human
SF-268 = test: NCI screening panel, SF-268 (CNS Cancer)
Protocol: (§1) Representative compounds of Formula I were screened using the National Cancer Institute (NCI) screening panel, which consists of a panel of human tumor cell lines, representing leukemia, melanoma, and cancers of the lung, colon, ovary, breast, prostate and renal system.
(§2) After 24 h, two plates of each cell line are fixed in situ with TCA, to represent a measurement of the cell population for each cell line at the time of drug addition (Tz). Experimental drugs are solubilised in dimethyl sulfoxide at 400-fold the desired final maximum test concentration and stored frozen prior to use. At the time of drug addition, an aliquot of frozen concentrate is thawed and diluted to twice the desired final maximum test concentration with complete medium containing 50 μg/mL gentamicin. Additional four, 10-fold or ½ log serial dilutions are made to provide a total of five drug concentrations plus control. Aliquots of 100 μl of these different drug dilutions are added to the appropriate microtiter wells already containing 100 μl of medium, resulting in the required final drug concentrations.
(§3) Following drug addition, the plates are incubated for an additional 48 h at 37° C., 5% CO2, 95% air, and 100% relative humidity. For adherent cells, the assay is terminated by the addition of cold TCA (trichloroacetic acid). Cells are fixed in situ by the gentle addition of 50 μl of cold 50% (w/v) TCA (final concentration, 10% TCA) and incubated for 60 minutes at 4° C. The supernatant is discarded, and the plates are washed five times with tap water and air dried. Sulforhodamine B (SRB) solution (100 μl) at 0.4% (w/v) in 1% acetic acid is added to each well, and plates are incubated for 10 minutes at room temperature. After staining, unbound dye is removed by washing five times with 1% acetic acid and the plates are air dried. Bound stain is subsequently solubilised with 10 mM trizma base, and the absorbance is read on an automated plate reader at a wavelength of 515 nm. For suspension cells, the methodology is the same except that the assay is terminated by fixing settled cells at the bottom of the wells by gently adding 50 μl of 80% TCA (final concentration, 16% TCA). Using the seven absorbance measurements [time zero, (Tz), control growth, (C), and test growth in the presence of drug at the five concentration levels (Ti)], the percentage growth is calculated at each of the drug concentrations levels. Percentage growth inhibition is calculated as: [(Ti−Tz)/(C−Tz)]×100 for concentrations for which Ti>/=Tz and [(Ti−Tz)/Tz]×100 for concentrations for which Ti<Tz.
(§4) Three dose response parameters are calculated for each experimental agent. Growth inhibition of 50% (GI50) is calculated from [(Ti−Tz)/(C−Tz)]×100=50, which is the drug concentration resulting in a 50% reduction in the net protein increase (as measured by SRB staining) in control cells during the drug incubation. The drug concentration resulting in total growth inhibition (TGI) is calculated from Ti=Tz. The LC50 (concentration of drug resulting in a 50% reduction in the measured protein at the end of the drug treatment as compared to that at the beginning) indicating a net loss of cells following treatment is calculated from [(Ti−Tz)/Tz]×100=−50. Values are calculated for each of these three parameters if the level of activity is reached. However, if the effect is not reached or is exceeded, the value for that parameter is expressed as greater or less than the maximum or minimum concentration tested.

UACC-257 = test: NCI screening panel, UACC-257 (Melanoma)
Protocol: as §1, §2, §3, §4

NCI-H522 = test: NCI screening panel, NCI-H522 (Non-Small Cell Lung Cancer)
Protocol: as §1, §2, §3, §4

HCT-15 = test: NCI screening panel, HCT-15 (Colon Cancer)
Protocol: as §1, §2, §3, §4

HCC-2998 = test: NCI screening panel, HCC-2998 (Colon Cancer)
Protocol: as §1, §2, §3, §4

SF-539 = test: NCI screening panel, SF-539 (CNS Cancer)
Protocol: as §1, §2, §3, §4

A549/ATCC = test: NCI screening panel, A549/ATCC (Non-Small Cell Lung Cancer)
Protocol: as §1, §2, §3, §4

RPMI-8226 = test: NCI screening panel, RPMI-8226 (Leukemia)
Protocol: as §1, §2, §3, §4

LOX IMVI = test: NCI screening panel, LOX IMVI (Melanoma)
Protocol: as §1, §2, §3, §4

M14 = test: NCI screening panel, M14 (Melanoma)
Protocol: as §1, §2, §3, §4

SK-OV-3 = test: NCI screening panel, SK-OV-3 (Ovarian Cancer)
Protocol: as §1, §2, §3, §4

SR = test: NCI screening panel, SR (Leukemia)
Protocol: as §1, §2, §3, §4

BT-549 = test: NCI screening panel, BT-549 (Breast Cancer)
Protocol: as §1, §2, §3, §4

NCI-H23 = test: NCI screening panel, NCI-H23 (Non-Small Cell Lung Cancer)
Protocol: as §1, §2, §3, §4

HCT-116 = test: NCI screening panel, HCT-116 (Colon Cancer)
Protocol: as §1, §2, §3, §4

SK-MEL-2 = test: NCI screening panel, SK-MEL-2 (Melanoma)
Protocol: as §1, §2, §3, §4

SN12C = test: NCI screening panel, SN12C (Renal Cancer)
Protocol: as §1, §2, §3, §4

UACC-62 = test: NCI screening panel, UACC-62 (Melanoma)
Protocol: as §1, §2, §3, §4

U251 = test: NCI screening panel, U251 (CNS Cancer)
Protocol: as §1, §2, §3, §4

**Q.** How did the Log10GI50 (SF-268) turn out when `CC(C)C[C@H](NC(=O)[C@H](Cc1ccccc1)NC(=O)[C@H](COC(F)F)NC(=O)[C@H](COC(F)F)NC(=O)CN1CCOCC1)C(=O)[C@@]1(C)CO1` [Example 11, (2S)-2-[[(2S)-3-(difluoromethoxy)-2-[[(2S)-3-(difluoromethoxy)-2-[(2-morpholinoacetyl)-amino]propanoyl]amino]propanoyl]amino]-N-[(1S)-3-methyl-1-[(2R)-2-methyloxirane-2-carbonyl]butyl]-3-phenyl-propanamide] was run?
**A.** The Log10GI50 was −7.66.

**Q.** And the Log10LC50 (SF-268)?
**A.** Its Log10LC50 is −4.07.

**Q.** And the Log10TGI50 (SF-268)?
**A.** Its Log10TGI50 is −7.22.

**Q.** And the Log10GI50 (UACC-257)?
**A.** The Log10GI50 was −6.79.

**Q.** What about the Log10LC50 (UACC-257) of the same compound?
**A.** The Log10LC50 was greater than −4.00.

**Q.** And the Log10TGI50 (UACC-257)?
**A.** Its Log10TGI50 is −6.14.

**Q.** What about the Log10GI50 (NCI-H522) of the same compound?
**A.** Its Log10GI50 is −7.72.

**Q.** And the Log10LC50 (NCI-H522)?
**A.** Its Log10LC50 is greater than −4.00.

**Q.** What about the Log10TGI50 (NCI-H522) of the same compound?
**A.** The Log10TGI50 was −7.15.

**Q.** And the Log10GI50 (HCT-15)?
**A.** The Log10GI50 was −6.00.

**Q.** What about the Log10LC50 (HCT-15) of the same compound?
**A.** The Log10LC50 was greater than −4.00.

**Q.** What about the Log10TGI50 (HCT-15) of the same compound?
**A.** The Log10TGI50 was −4.42.

**Q.** What about the Log10GI50 (HCC-2998) of the same compound?
**A.** The Log10GI50 was −7.66.

**Q.** And the Log10LC50 (HCC-2998)?
**A.** Its Log10LC50 is −6.95.

**Q.** And the Log10TGI50 (HCC-2998)?
**A.** The Log10TGI50 was −7.33.

**Q.** What about the Log10GI50 (SF-539) of the same compound?
**A.** Its Log10GI50 is −7.66.

**Q.** And the Log10LC50 (SF-539)?
**A.** The Log10LC50 was −5.48.

**Q.** And the Log10TGI50 (SF-539)?
**A.** The Log10TGI50 was −7.21.

**Q.** And the Log10GI50 (A549/ATCC)?
**A.** The Log10GI50 was −7.40.

**Q.** What about the Log10TGI50 (A549/ATCC) of the same compound?
**A.** The Log10TGI50 was greater than −4.00.

**Q.** What about the Log10GI50 (RPMI-8226) of the same compound?
**A.** Its Log10GI50 is −7.65.

**Q.** And the Log10LC50 (RPMI-8226)?
**A.** The Log10LC50 was greater than −4.00.

**Q.** What about the Log10TGI50 (RPMI-8226) of the same compound?
**A.** Its Log10TGI50 is −7.02.

**Q.** What about the Log10GI50 (LOX IMVI) of the same compound?
**A.** The Log10GI50 was −7.79.

**Q.** And the Log10LC50 (LOX IMVI)?
**A.** The Log10LC50 was −7.09.

**Q.** And the Log10TGI50 (LOX IMVI)?
**A.** The Log10TGI50 was −7.44.

**Q.** What about the Log10GI50 (M14) of the same compound?
**A.** The Log10GI50 was −7.21.

**Q.** What about the Log10LC50 (M14) of the same compound?
**A.** The Log10LC50 was greater than −4.00.

**Q.** What about the Log10TGI50 (M14) of the same compound?
**A.** Its Log10TGI50 is −5.91.

**Q.** And the Log10GI50 (SK-OV-3)?
**A.** Its Log10GI50 is −6.85.

**Q.** And the Log10LC50 (SK-OV-3)?
**A.** The Log10LC50 was greater than −4.00.

**Q.** And the Log10TGI50 (SK-OV-3)?
**A.** Its Log10TGI50 is −4.84.

**Q.** And the Log10GI50 (SR)?
**A.** The Log10GI50 was −7.82.

**Q.** And the Log10LC50 (SR)?
**A.** Its Log10LC50 is greater than −4.00.

**Q.** And the Log10TGI50 (SR)?
**A.** Its Log10TGI50 is greater than −4.00.

**Q.** And the Log10GI50 (BT-549)?
**A.** Its Log10GI50 is −7.76.

**Q.** And the Log10LC50 (BT-549)?
**A.** The Log10LC50 was greater than −4.00.

**Q.** What about the Log10TGI50 (BT-549) of the same compound?
**A.** Its Log10TGI50 is −7.06.

**Q.** And the Log10GI50 (NCI-H23)?
**A.** Its Log10GI50 is −7.50.

**Q.** And the Log10LC50 (NCI-H23)?
**A.** The Log10LC50 was greater than −4.00.

**Q.** What about the Log10TGI50 (NCI-H23) of the same compound?
**A.** Its Log10TGI50 is −5.55.

**Q.** And the Log10GI50 (HCT-116)?
**A.** Its Log10GI50 is less than −8.00.

**Q.** And the Log10LC50 (HCT-116)?
**A.** Its Log10LC50 is −4.54.

**Q.** And the Log10TGI50 (HCT-116)?
**A.** The Log10TGI50 was −7.06.

**Q.** What about the Log10GI50 (SK-MEL-2) of the same compound?
**A.** The Log10GI50 was −7.48.

**Q.** What about the Log10LC50 (SK-MEL-2) of the same compound?
**A.** Its Log10LC50 is greater than −4.00.

**Q.** What about the Log10TGI50 (SK-MEL-2) of the same compound?
**A.** The Log10TGI50 was −6.68.

**Q.** And the Log10GI50 (SN12C)?
**A.** Its Log10GI50 is −7.20.

**Q.** What about the Log10LC50 (SN12C) of the same compound?
**A.** The Log10LC50 was −5.39.

**Q.** And the Log10TGI50 (SN12C)?
**A.** Its Log10TGI50 is −6.50.

**Q.** And the Log10GI50 (UACC-62)?
**A.** The Log10GI50 was −7.52.

**Q.** And the Log10LC50 (UACC-62)?
**A.** The Log10LC50 was greater than −4.00.

**Q.** And the Log10TGI50 (UACC-62)?
**A.** The Log10TGI50 was −6.73.

**Q.** What about the Log10GI50 (U251) of the same compound?
**A.** Its Log10GI50 is −7.59.

**Q.** What about the Log10LC50 (U251) of the same compound?
**A.** The Log10LC50 was −4.04.

**Q.** What about the Log10TGI50 (U251) of the same compound?
**A.** Its Log10TGI50 is −6.71.
